Data as given in ChEMBL document CHEMBL1201862, “PubChem BioAssay data set” (2004).
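Assay format: 96-well plates, 48-hour exposure. GI50 marks 50% less growth.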 Calls of active or inactive are those of the source. Cut-off read from the data, not from the text of the source: active = GI50 up to about 1.1 µM and inactive = higher.

Legend:
Assay in all cases: NCI-60 cell line screen, 48 h
[1] = system: HL-60
[2] = system: TK-10
[3] = system: PC-3
[4] = system: 786-0
[5] = system: NCI-H522
[6] = system: NCI/ADR-RES
[7] = system: A549
[8] = system: T47D
[9] = system: HOP-92
[10] = system: IGROV-1
[11] = system: HOP-62
[12] = system: SN12C
[13] = system: KM12
[14] = system: SF-295
[15] = system: NCI-H460
[16] = system: UACC-62
[17] = system: NCI-H226
[18] = system: SK-MEL-5
[19] = system: SNB-19
[20] = system: NCI-H23
[21] = system: UO-31
[22] = system: HCT-116
[23] = system: MDA-N
[24] = system: Malme-3M
[25] = system: LOX IMVI
[26] = system: UACC-257
[27] = system: RPMI-8226
[28] = system: OVCAR-3
[29] = system: SF-268
[30] = system: OVCAR-8
[31] = system: SK-MEL-28
[32] = system: SF-539
[33] = system: K562
[34] = system: ACHN
[35] = system: MOLT-4
[36] = system: MCF7
[37] = system: Hs-578T
[38] = system: MDA-MB-435
[39] = system: HT-29
[40] = system: HCC 2998
[41] = system: CCRF-CEM
[42] = system: DU-145
[43] = system: OVCAR-4
[44] = system: SR
[45] = system: SNB-75
[46] = system: CAKI-1
[47] = system: SK-OV-3
[48] = system: COLO 205
[49] = system: M14
[50] = system: EKVX
[51] = system: MDA-MB-231
[52] = system: SW-620
[53] = system: RXF 393
[54] = system: OVCAR-5
[55] = system: A498
[56] = system: U-251
[57] = system: SK-MEL-2
[58] = system: HCT-15

C/C(=C\CNc1ncnc2c1ncn2CCC#N)CO
GI50 [1]: > 100 µM (inactive)
GI50 [2]: > 100 µM (inactive)
GI50 [3]: > 100 µM (inactive)
GI50 [4]: > 100 µM (inactive)
GI50 [5]: > 100 µM (inactive)
GI50 [6]: > 100 µM (inactive)
GI50 [7]: > 100 µM (inactive)
GI50 [8]: > 100 µM (inactive)
GI50 [9]: > 100 µM (inactive)
GI50 [10]: > 100 µM (inactive)
GI50 [11]: > 100 µM (inactive)
GI50 [12]: > 100 µM (inactive)
GI50 [13]: > 100 µM (inactive)
GI50 [14]: > 100 µM (inactive)
GI50 [15]: > 100 µM (inactive)
GI50 [16]: > 100 µM (inactive)
GI50 [17]: > 100 µM (inactive)
GI50 [18]: > 100 µM (inactive)
GI50 [19]: > 100 µM (inactive)
GI50 [20]: > 100 µM (inactive)
GI50 [21]: > 100 µM (inactive)
GI50 [22]: > 100 µM (inactive)
GI50 [23]: > 100 µM (inactive)
GI50 [24]: > 100 µM (inactive)
GI50 [25]: > 100 µM (inactive)
GI50 [26]: > 100 µM (inactive)
GI50 [27]: > 100 µM (inactive)
GI50 [28]: > 100 µM (inactive)
GI50 [29]: > 100 µM (inactive)
GI50 [30]: > 100 µM (inactive)
GI50 [31]: > 100 µM (inactive)
GI50 [32]: > 100 µM (inactive)
GI50 [33]: > 100 µM (inactive)
GI50 [34]: > 100 µM (inactive)
GI50 [35]: > 100 µM (inactive)
GI50 [36]: > 100 µM (inactive)
GI50 [37]: > 100 µM (inactive)
GI50 [38]: > 100 µM (inactive)
GI50 [39]: > 100 µM (inactive)
GI50 [40]: > 100 µM (inactive)
GI50 [41]: > 100 µM (inactive)
GI50 [42]: > 100 µM (inactive)
GI50 [43]: > 100 µM (inactive)
GI50 [44]: > 100 µM (inactive)
GI50 [45]: > 100 µM (inactive)
GI50 [46]: > 100 µM (inactive)
GI50 [47]: > 100 µM (inactive)
GI50 [48]: > 100 µM (inactive)
GI50 [49]: > 100 µM (inactive)
GI50 [50]: > 100 µM (inactive)
GI50 [51]: > 100 µM (inactive)
GI50 [52]: > 100 µM (inactive)
GI50 [53]: > 100 µM (inactive)
GI50 [54]: > 100 µM (inactive)

CC(=O)OC1[C@H](n2ccnc2)C[C@H]2[C@@H]3CC=C4CC(N5CCCC5)CC[C@]4(C)[C@H]3CC[C@]12C (some centres not stated)
GI50 [1]: 12.1 µM (inactive)
GI50 [2]: 88.1 µM (inactive)
GI50 [3]: 34.4 µM (inactive)
GI50 [4]: 22.5 µM (inactive)
GI50 [5]: 24.1 µM (inactive)
GI50 [55]: 32.7 µM (inactive)
GI50 [6]: > 100 µM (inactive)
GI50 [7]: 41.4 µM (inactive)
GI50 [9]: 69.5 µM (inactive)
GI50 [10]: 43.7 µM (inactive)
GI50 [56]: 55.3 µM (inactive)
GI50 [57]: 20.3 µM (inactive)
GI50 [12]: 51.9 µM (inactive)
GI50 [13]: 58.3 µM (inactive)
GI50 [14]: 20.5 µM (inactive)
GI50 [15]: 6.71 µM (inactive)
GI50 [16]: 27.5 µM (inactive)
GI50 [17]: 40.1 µM (inactive)
GI50 [18]: 33 µM (inactive)
GI50 [19]: > 100 µM (inactive)
GI50 [20]: 60.3 µM (inactive)
GI50 [21]: 49.5 µM (inactive)
GI50 [22]: 21 µM (inactive)
GI50 [23]: 28.1 µM (inactive)
GI50 [25]: 10.1 µM (inactive)
GI50 [26]: 18.8 µM (inactive)
GI50 [27]: 23.2 µM (inactive)
GI50 [28]: 54.6 µM (inactive)
GI50 [29]: 34.8 µM (inactive)
GI50 [30]: 62.5 µM (inactive)
GI50 [31]: 21.2 µM (inactive)
GI50 [32]: 14.1 µM (inactive)
GI50 [33]: 17.1 µM (inactive)
GI50 [34]: 52.2 µM (inactive)
GI50 [35]: 17.3 µM (inactive)
GI50 [36]: 33.9 µM (inactive)
GI50 [37]: > 100 µM (inactive)
GI50 [38]: 23.8 µM (inactive)
GI50 [39]: 5.35 µM (inactive)
GI50 [41]: 25.6 µM (inactive)
GI50 [42]: > 100 µM (inactive)
GI50 [43]: 87.3 µM (inactive)
GI50 [44]: 12 µM (inactive)
GI50 [45]: > 100 µM (inactive)
GI50 [46]: 43.5 µM (inactive)
GI50 [58]: 21.3 µM
GI50 [48]: 23.7 µM (inactive)
GI50 [49]: 21.8 µM (inactive)
GI50 [50]: 70.1 µM (inactive)
GI50 [51]: 66.2 µM (inactive)
GI50 [52]: 54.1 µM (inactive)
GI50 [53]: 11.7 µM (inactive)
GI50 [54]: > 100 µM (inactive)
